Results taken from patent US8546579B2, “Bicycloheteroaryl compounds as P2X7 modulators and uses thereof” (Evotec (US) Inc., priority 2006, dated 2013).

These compounds were tested against T1, P2X7 receptor (Homo sapiens, UniProt Q99572) (assay: IL-1β release assay in differentiated THP-1 cells stimulated with BzATP (Example 9)). Conditions: 0.1 μM compound; differentiated THP-1 cells, BzATP 250 uM; "*" class symbols; read-out: IL-1β % Inhib. ("*" symbols: at 0.1 μM).
T1 construct: host or cells: THP-1 cells differentiated with LPS and IFN-γ
T1 sequence (Q99572 1-595): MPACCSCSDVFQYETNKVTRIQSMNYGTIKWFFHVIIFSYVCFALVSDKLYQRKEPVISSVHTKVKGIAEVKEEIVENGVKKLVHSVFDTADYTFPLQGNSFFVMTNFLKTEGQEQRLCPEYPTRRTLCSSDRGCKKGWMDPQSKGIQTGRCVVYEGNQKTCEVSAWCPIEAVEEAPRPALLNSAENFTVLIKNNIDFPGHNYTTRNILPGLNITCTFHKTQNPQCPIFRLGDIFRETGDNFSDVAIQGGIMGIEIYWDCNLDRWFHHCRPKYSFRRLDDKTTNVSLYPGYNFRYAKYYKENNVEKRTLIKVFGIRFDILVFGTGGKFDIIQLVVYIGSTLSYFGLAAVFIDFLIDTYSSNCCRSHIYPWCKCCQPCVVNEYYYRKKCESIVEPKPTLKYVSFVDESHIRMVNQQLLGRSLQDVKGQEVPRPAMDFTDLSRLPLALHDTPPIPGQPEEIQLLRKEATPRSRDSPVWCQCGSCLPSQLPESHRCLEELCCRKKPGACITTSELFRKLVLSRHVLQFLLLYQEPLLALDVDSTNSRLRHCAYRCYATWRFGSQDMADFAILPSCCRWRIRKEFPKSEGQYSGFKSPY
Type: cell-based
Design: inhibition: dose or concentration left out as unconfirmed
Summary of the method: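 THP-1 cells differentiated 16 h with LPS and IFN-γ (100 ng/mL each), re-primed 2 h with LPS, then compound-pretreated 30 min before 250 uM BzATP for 45 min. Supernatant IL-1β quantified by ELISA; background-adjusted percent inhibition fitted to four-parameter logistic for IC50.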

inhibition at 0.1 µM | Structure (SMILES)
26 to 50% | Cc1c(Cl)cccc1C(=O)Nc1cccc2c(=O)n(Cc3ccc(OC(F)(F)F)cc3)ccc12 [Compound 1598]

Same assay, conditions: 0.1 μM compound; differentiated THP-1 cells, BzATP 250 uM; '*' class symbols; read-out: IL-1β % Inhib. (asterisk classes, 0.1 μM)

inhibition at 0.1 µM | Structure (SMILES)
26 to 50% | CC1CCC(C(=O)Nc2cccc3c(=O)n(CCN(C)C)ccc23)CC1 (stereo not shown) [Compound 1034]

Same assay, conditions: 0.1 μM compound; differentiated THP-1 cells, BzATP 250 uM; symbols * to ****; read-out: IL-1β % Inhib. (asterisk symbols: at 0.1 μM)

inhibition at 0.1 µM | Structure (SMILES)
0 to 25% | COc1ccccc1CCC(=O)Nc1cccc2c(=O)n(CCN3CCOCC3)ccc12 [Compound 1201]
0 to 25% | CC(C(=O)Nc1cccc2c(=O)n(CC(C)(C)C)ccc12)c1ccccc1 (stereo not shown) [Compound 1247]

Same assay, conditions: 0.3 μM compound; differentiated THP-1 cells, BzATP 250 uM; "+" class symbols; read-out: IL-1β % Inhib. @ 0.3 μM

inhibition at 0.3 µM | Structure (SMILES)
0 to 25% | CN(C)CCn1ccc2c(NC(=O)Cc3ccc(C(F)(F)F)cc3C(F)(F)F)cccc2c1=O [Compound 1618]
0 to 25% | CC(C)C(C(=O)Nc1cccc2c(=O)n(CCN(C)C)ccc12)c1ccc(Cl)cc1 (stereo not shown) [Compound 1612]

Same assay, conditions: 0.3 μM compound; differentiated THP-1 cells, BzATP 250 uM; '+' class symbols; read-out: IL-1β % Inhib. @ 0.3 μM

inhibition at 0.3 µM | Structure (SMILES)
0 to 25% | COCCn1ccc2c(NC(=O)c3ccc(Cl)c(C)c3)cccc2c1=O [Compound 1071]
0 to 25% | CCOc1ccccc1CC(=O)Nc1cccc2c(=O)n(CCN(C)C)ccc12 [Compound 1177]
0 to 25% | Cc1ccc(C)c(CC(=O)Nc2cccc3c(=O)n(Cc4cccnc4)ccc23)c1 [Compound 1077]
0 to 25% | COc1cc(CC(=O)Nc2cccc3c(=O)n(CCN(C)C)ccc23)cc(OC)c1 [Compound 1164]
0 to 25% | COc1ccc(CC(=O)Nc2cccc3c(=O)n(CC4CCOCC4)ccc23)cc1 [Compound 1105]
0 to 25% | CN(C)CCn1ccc2c(NC(=O)Cc3ccc(F)cc3)cccc2c1=O [Compound 1018]
0 to 25% | Cc1ccc(CCC(=O)Nc2cccc3c(=O)n(CCN(C)C)ccc23)c(C)c1 [Compound 1185]

Second part, the compound before the results:

Structure (SMILES) | inhibition at 0.3 µM
CC(C(=O)Nc1cccc2c(=O)n(CCN(C)C)ccc12)c1ccccc1 (stereo not shown) [Compound 1148] | 0 to 25%
O=C(Nc1cccc2c(=O)n(CC3CCOCC3)ccc12)c1ccc2c(c1)OCCCO2 [Compound 1118] | 0 to 25%
O=C(Nc1cccc2c(=O)n(CC3CCOCC3)ccc12)[C@]12C[C@@H]3CC1C[C@@H](C3)C2 [Compound 1116] | 0 to 25%
COc1ccc(C(=O)Nc2cccc3c(=O)n(Cc4cccnc4)ccc23)cc1Cl [Compound 1078] | 0 to 25%
Cc1ccccc1C(=O)Nc1cccc2c(=O)n(CCN3CCOCC3)ccc12 [Compound 1191] | 0 to 25%
Cc1cccc(C(=O)Nc2cccc3c(=O)n(CC4CCOCC4)ccc23)c1Cl [Compound 1132] | 0 to 25%
CCOc1ccc(C(=O)Nc2cccc3c(=O)n(CC4CCOCC4)ccc23)c(O)c1 [Compound 1025] | 0 to 25%
CN(C)CCn1ccc2c(NC(=O)CCc3ccc(Cl)cc3)cccc2c1=O [Compound 1176] | 0 to 25%
COc1ccc(C(=O)Nc2cccc3c(=O)n(CC4CCOCC4)ccc23)cc1Cl [Compound 1029] | 0 to 25%
CCOc1cccc(C(=O)Nc2cccc3c(=O)n(CCN4CCOCC4)ccc23)c1 [Compound 1044] | 0 to 25%
O=C(Nc1cccc2c(=O)n(CC3CCOCC3)ccc12)c1ccc(Cl)cc1Cl [Compound 1083] | 0 to 25%

Same assay, conditions: 0.3 μM compound; differentiated THP-1 cells, BzATP 250 uM; symbols + to ++++; read-out: IL-1β % Inhib. @ 0.3 μM

inhibition at 0.3 µM | Structure (SMILES)
0 to 25% | COc1ccc(C(=O)Nc2cccc3c(=O)n(Cc4cccnc4)ccc23)cc1C [Compound 1371]
0 to 25% | COc1cccc(CC(=O)Nc2cccc3c(=O)n(CC(C)(C)C)ccc23)c1 [Compound 1257]
0 to 25% | COCCn1ccc2c(NC(=O)Cc3cccc(C)c3)cccc2c1=O [Compound 1315]
0 to 25% | Cc1cccc(CC(=O)Nc2cccc3c(=O)n(C)ccc23)c1 [Compound 1298]
0 to 25% | CCOc1ccc(CC(=O)Nc2cccc3c(=O)n(CCOC)ccc23)cc1 [Compound 1317]
0 to 25% | COCCn1ccc2c(NC(=O)CCc3cccc(C)c3)cccc2c1=O [Compound 1338]

Further lines, the compound ahead of its results:

Structure (SMILES) | inhibition at 0.3 µM
Cc1cccc(C(=O)Nc2cccc3c(=O)n(Cc4cccnc4)ccc23)c1C [Compound 1345] | 0 to 25%
CC(C)(C)Cn1ccc2c(NC(=O)c3ccccc3Cl)cccc2c1=O [Compound 1244] | 0 to 25%
CC(C)(C)Cn1ccc2c(NC(=O)c3ccc4c(c3)OCCCO4)cccc2c1=O [Compound 1273] | 0 to 25%
Cc1cccc(CCC(=O)Nc2cccc3c(=O)n(Cc4cccnc4)ccc23)c1 [Compound 1369] | 0 to 25%
CC(C)(C)Cn1ccc2c(NC(=O)C3C[C@@H]4CC[C@H]3C4)cccc2c1=O (stereo partly shown) [Compound 1277] | ≥ 76%
CC(C)Cc1ccc(C(=O)Nc2cccc3c(=O)n(CCN4CCOCC4)ccc23)cc1 [Compound 1243] | 0 to 25%
CN(C)CCn1ccc2c(NC(=O)CC3CCCCCC3)cccc2c1=O [Compound 1389] | 26 to 50%
CC(C)(C)Cn1ccc2c(NC(=O)[C@@]34C[C@@H]5C[C@@H](C[C@@H]3C5)C4)cccc2c1=O [Compound 1271] | 0 to 25%

Same assay, conditions: THP-1; read-out: IL-1β % Inhib.

inhibition | Structure (SMILES)
0 to 25% | COCCn1ccc2c(NC(=O)Cc3ccccc3Cl)cccc2c1=O [Compound 1436]
0 to 25% | Cc1ccc(C)c(C(=O)Nc2cccc3c(=O)n(C)ccc23)c1 [Compound 1420]
0 to 25% | COc1ccc(OC)c(CC(=O)Nc2cccc3c(=O)n(Cc4ccc(OC(F)(F)F)cc4)ccc23)c1 [Compound 1578]
0 to 25% | Cc1ccc(C)c(CC(=O)Nc2cccc3c(=O)n(CCN(C)C)ccc23)c1 [Compound 1401]
0 to 25% | Cc1ccc(CC(=O)Nc2cccc3c(=O)n(C)ccc23)cc1 [Compound 1423]
0 to 25% | COCCn1ccc2c(NC(=O)c3cccc(C)c3)cccc2c1=O [Compound 1428]
0 to 25% | Cc1ccc(C)c(CC(=O)Nc2cccc3c(=O)n(CCCN4CCCC4=O)ccc23)c1 [Compound 1499]
0 to 25% | COc1ccc(CC(=O)Nc2cccc3c(=O)n(CCCN4CCCC4=O)ccc23)cc1C [Compound 1539]
26 to 50% | COc1cc(OC)cc(C(=O)Nc2cccc3c(=O)n(Cc4ccc(OC(F)(F)F)cc4)ccc23)c1 [Compound 1566]
0 to 25% | COc1ccc(CC(=O)Nc2cccc3c(=O)n(CCCN4CCCC4=O)ccc23)c(OC)c1 [Compound 1535]
0 to 25% | COc1ccc(OC)c(CC(=O)Nc2cccc3c(=O)n(C)ccc23)c1 [Compound 1422]

Further lines, the compound ahead of its results:

Structure (SMILES) | inhibition
O=C(CCc1ccccc1Cl)Nc1cccc2c(=O)n(CCCN3CCCC3=O)ccc12 [Compound 1501] | 0 to 25%
O=C(Nc1cccc2c(=O)n(Cc3ccc(OC(F)(F)F)cc3)ccc12)c1ccccc1Cl [Compound 1560] | 0 to 25%
Cc1ccccc1C(=O)Nc1cccc2c(=O)n(Cc3ccc(OC(F)(F)F)cc3)ccc12 [Compound 1562] | 0 to 25%
O=C(Nc1cccc2c(=O)n(CCCN3CCCC3=O)ccc12)c1ccc(-c2ccccc2)o1 [Compound 1496] | 0 to 25%
CC(C)(C)c1ccc(C(=O)Nc2cccc3c(=O)n(Cc4cccnc4)ccc23)cc1 [Compound 1446] | 0 to 25%
Cc1cccc(C(=O)Nc2cccc3c(=O)n(CC4CCN(C)CC4)ccc23)c1C [Compound 1461] | 0 to 25%
COCCn1ccc2c(NC(=O)c3ccc4ccccc4c3)cccc2c1=O [Compound 1434] | 0 to 25%
O=C(CCc1ccc2c(c1)OCO2)Nc1cccc2c(=O)n(CCCN3CCCC3=O)ccc12 [Compound 1502] | 0 to 25%

Same assay, conditions: THP-1 cells, BzATP-stimulated IL-1β release, four parameter logistic fit

IC50 | Structure (SMILES)
> 1000 nM | CN(C)CCn1ccc2c(NC(=O)Cc3ccc(C(F)(F)F)cc3C(F)(F)F)cccc2c1=O [Compound 1618]
> 1000 nM | CN(C)CCn1ccc2c(NC(=O)Cc3ccc(F)cc3)cccc2c1=O [Compound 1018]

Continued, compound first:

Structure (SMILES) | IC50
CC(C)C(C(=O)Nc1cccc2c(=O)n(CCN(C)C)ccc12)c1ccc(Cl)cc1 (stereo not shown) [Compound 1612] | > 1000 nM
CN(C)CCn1ccc2c(NC(=O)CC3CCCCCC3)cccc2c1=O [Compound 1389] | 311 nM
